Results taken from patent US12173018B2, “Penicillin-binding protein inhibitors” (priority 2018, dated 2024).
Like-named read-outs stand apart in the source and are kept apart here.

Key:
E. coli PBP1b = E. coli PBP1b (Escherichia coli (strain K12), UniProt P02919); assay: Radioligand competition binding assay with 14C-labeled boronic acid probe, PBP1b
E. coli PBP2 = E. coli PBP2 (Escherichia coli (strain K12), UniProt P0AD65); assay: E. coli PBP2 Bocillin-FL fluorescence polarization competition binding assay
How it was run: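 Purified PBP2 at 1.5 μM final was preincubated with boronic acid inhibitor, then Bocillin-FL added to 0.1 μM final in Hepes pH 8.0/NaCl/glycerol buffer. Polarization was monitored 90 min; the concentration halving probe binding is reported as EC50.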

E. coli PBP4 = E. coli PBP4 (Escherichia coli (strain K12), UniProt P24228); assay: E. coli PBP4 Bocillin-FL fluorescence polarization competition binding assay; conditions: fluorescence polarization competition binding with Bocillin-FL; read-out: E. coli K12 PBP4 Potency (EC50)
Excerpt: To determine the ability of boronic acid-based test PBP inhibitors to bind Penicillin Binding Proteins (PBPs), Bocillin-FL (fluorescently-labeled penicillin V; ThermoFisher Scientific) was used in a fluorescence polarization (FP) competition binding assay to assess inhibitor binding to PBP2, PBP3 or PBP4 from Escherichia coli. PBPs were cloned and purified as described previously (King, D. T, et al., ACS Infectious Diseases 2015, 1, 175-184). To establish assay conditions for competition binding, an enzyme titration/saturation binding experiment was initially performed. Bocillin-FL was prepared at 0.2 μM in a buffer comprised of 50 mM Hepes (pH 8.0), 300 mM NaCl and 5% (v/v) glycerol. Saturation binding was performed by mixing 40 μl of PBP solutions ranging in concentrations from 0-12 μM with 40 μl of the 0.2 μM Bocillin-FL solution, in individual wells of a black 384-well microplate. FP was measured immediately upon mixing (Excitation, 490 nm; Emission, 520 nm; g-factor, 0.96), using a Cytation3 (BioTek) microplate reader and measured continuously for up to 120 minutes. […] Assays (80 μl final volume) were performed with PBPs at a final concentration of 1.5 μM, Bocillin-FL at 0.1 μM and beta-lactam concentrations that ranged from 0-1000 μM. […] Bocillin-FL was added and the FP immediately measured for 60 minutes (90 minutes for PBP2). The beta-lactam potency was reported as the concentration of beta-lactam required to reduce binding of Bocillin-FL by […] (EC50). […] Binding assays for boronic acid PBP inhibitors were performed in an identical fashion.

[1] = fluorescence polarization competition binding with Bocillin-FL, read-out: E. coli K12 PBP2 Potency (EC50)

Chain of E. coli PBP2 (P0AD65 whole entry): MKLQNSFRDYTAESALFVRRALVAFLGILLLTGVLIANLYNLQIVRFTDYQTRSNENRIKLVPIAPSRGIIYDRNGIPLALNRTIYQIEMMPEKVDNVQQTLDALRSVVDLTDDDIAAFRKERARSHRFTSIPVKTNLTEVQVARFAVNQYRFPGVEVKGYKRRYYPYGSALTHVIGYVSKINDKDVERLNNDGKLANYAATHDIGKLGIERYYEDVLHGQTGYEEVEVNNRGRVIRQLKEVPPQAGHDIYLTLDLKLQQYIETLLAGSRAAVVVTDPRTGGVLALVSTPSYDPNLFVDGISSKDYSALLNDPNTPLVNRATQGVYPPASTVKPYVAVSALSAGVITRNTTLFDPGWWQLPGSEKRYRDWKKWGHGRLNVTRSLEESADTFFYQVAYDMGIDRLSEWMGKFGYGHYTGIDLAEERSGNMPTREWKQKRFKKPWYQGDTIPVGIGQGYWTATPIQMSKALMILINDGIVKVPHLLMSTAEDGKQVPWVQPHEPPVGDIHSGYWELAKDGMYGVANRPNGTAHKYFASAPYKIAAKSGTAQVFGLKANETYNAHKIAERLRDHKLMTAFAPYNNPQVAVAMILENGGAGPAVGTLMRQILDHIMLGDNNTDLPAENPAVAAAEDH
Chain of E. coli PBP4 (P24228 21-477): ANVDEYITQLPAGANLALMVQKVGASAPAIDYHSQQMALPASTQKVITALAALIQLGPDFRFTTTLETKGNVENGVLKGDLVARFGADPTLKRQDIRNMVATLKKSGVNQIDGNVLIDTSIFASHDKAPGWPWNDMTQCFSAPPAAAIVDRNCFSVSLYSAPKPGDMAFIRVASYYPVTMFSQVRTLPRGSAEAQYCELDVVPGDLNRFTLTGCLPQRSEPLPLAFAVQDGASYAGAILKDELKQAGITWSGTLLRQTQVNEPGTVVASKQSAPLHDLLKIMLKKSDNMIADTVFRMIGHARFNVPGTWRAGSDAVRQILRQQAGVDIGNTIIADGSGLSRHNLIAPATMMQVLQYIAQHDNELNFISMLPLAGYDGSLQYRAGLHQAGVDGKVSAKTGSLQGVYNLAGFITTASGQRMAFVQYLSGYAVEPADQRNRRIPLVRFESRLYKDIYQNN
Chain of E. coli PBP1b (P02919 whole entry): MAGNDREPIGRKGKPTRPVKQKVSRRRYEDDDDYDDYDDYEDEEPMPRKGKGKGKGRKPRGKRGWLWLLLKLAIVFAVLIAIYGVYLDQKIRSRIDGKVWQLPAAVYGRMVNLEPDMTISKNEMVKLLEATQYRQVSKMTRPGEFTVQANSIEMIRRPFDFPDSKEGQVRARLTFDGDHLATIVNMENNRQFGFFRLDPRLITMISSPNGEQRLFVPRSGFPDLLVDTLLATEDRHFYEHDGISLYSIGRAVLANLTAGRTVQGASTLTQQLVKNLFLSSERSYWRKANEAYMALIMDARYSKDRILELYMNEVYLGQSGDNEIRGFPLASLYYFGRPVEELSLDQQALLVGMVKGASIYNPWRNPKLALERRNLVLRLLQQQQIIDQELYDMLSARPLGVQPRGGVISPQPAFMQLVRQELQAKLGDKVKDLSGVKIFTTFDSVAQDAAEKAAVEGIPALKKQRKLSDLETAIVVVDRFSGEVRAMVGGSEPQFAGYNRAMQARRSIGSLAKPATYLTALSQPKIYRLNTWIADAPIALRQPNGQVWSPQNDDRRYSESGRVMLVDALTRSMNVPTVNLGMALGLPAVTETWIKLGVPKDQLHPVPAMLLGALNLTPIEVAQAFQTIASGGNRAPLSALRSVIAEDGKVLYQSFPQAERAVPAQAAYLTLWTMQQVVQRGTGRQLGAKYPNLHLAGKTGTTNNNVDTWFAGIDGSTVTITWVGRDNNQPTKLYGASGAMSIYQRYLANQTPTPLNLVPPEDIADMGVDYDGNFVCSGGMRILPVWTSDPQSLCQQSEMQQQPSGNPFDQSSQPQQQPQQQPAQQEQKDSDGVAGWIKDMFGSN

Row | SMILES | EC50 (E. coli PBP1b) | EC50 (E. coli PBP4) | EC50 (E. coli PBP2; [1]) | other results
1 | O=C(O)c1cccc2c1OB(O)[C@@H](NC(=O)C(NC(=O)N1CCN(CCF)C(=O)C1=O)c1ccc(B(O)O)cc1)C2 (stereo partly drawn) [Example 113, (3R)-3-(2-(4-boronophenyl)-2-(4-(2-fluoroethyl)-2,3-dioxopiperazine-1-carboxamido)acetamido)-2-hydroxy-3,4-dihydro-2H-benzo[e][1,2]oxaborinine-8-carboxylic acid] | > 100 µM |  |  | 
2 | CCN1CCN(C(=O)NC(C(=O)N[C@H]2Cc3cccc(C(=O)O)c3OB2O)c2cccc(N)n2)C(=O)C1=O (stereo partly drawn) [Example 104, (3R)-3-(2-(6-aminopyridin-2-yl)-2-(4-ethyl-2,3-dioxopiperazine-1-carboxamido)acetamido)-2-hydroxy-3,4-dihydro-2H-benzo[e][1,2]oxaborinine-8-carboxylic acid] | > 100 µM |  |  | EC50 (E. coli PBP2): 30 to 500 µM
3 | CCN1CCN(C(=O)NC(C(=O)N[C@H]2Cc3cccc(C(=O)[O-])c3OB2O)c2ccc[n+](CC(N)=O)c2)C(=O)C1=O (stereo partly drawn) [Example 107, (3R)-3-(2-(1-(2-amino-2-oxoethyl)pyridin-1-ium-3-yl)-2-(4-ethyl-2,3-dioxopiperazine-1-carboxamido)acetamido)-2-hydroxy-3,4-dihydro-2H-benzo[e][1,2]oxaborinine-8-carboxylate] | > 100 µM |  |  | 
4 | CCN1CCN(C(=O)NC(C(=O)N[C@H]2Cc3cccc(C(=O)O)c3OB2O)c2ccc(O)cc2)C(=O)C1=O (stereo partly drawn) [Example 27, (3R)-3-(2-(4-ethyl-2,3-dioxopiperazine-1-carboxamido)-2-(4-hydroxyphenyl)acetamido)-2-hydroxy-3,4-dihydro-2H-benzo[e][1,2]oxaborinine-8-carboxylic acid] |  | > 500 µM | > 500 µM | 
5 | CCN1CCN(C(=O)NC(C(=O)N[C@H]2Cc3ccc(F)c(C(=O)O)c3OB2O)c2ccc(O)c(O)c2Cl)C(=O)C1=O (stereo partly drawn) [Example 124, (3R)-3-(2-(2-chloro-3,4-dihydroxyphenyl)-2-(4-ethyl-2,3-dioxopiperazine-1-carboxamido)acetamido)-7-fluoro-2-hydroxy-3,4-dihydro-2H-benzo[e][1,2]oxaborinine-8-carboxylic acid] | < 10 µM |  |  | 
6 | CCN1CCN(C(=O)NC(C(=O)N[C@H]2Cc3cccc(C(=O)O)c3OB2O)c2ccc(S(N)(=O)=O)cc2)C(=O)C1=O (stereo partly drawn) [Example 102, (3R)-3-(2-(4-ethyl-2,3-dioxopiperazine-1-carboxamido)-2-(4-sulfamoylphenyl)acetamido)-2-hydroxy-3,4-dihydro-2H-benzo[e][1,2]oxaborinine-8-carboxylic acid] |  |  | > 500 µM | 
7 | CCCN1CCN(C(=O)NC(C(=O)N[C@H]2Cc3cccc(C(=O)O)c3OB2O)c2ccc(O)c(O)c2Cl)C(=O)C1=O (stereo partly drawn) [Example 82, (3R)-3-(2-(2-chloro-3,4-dihydroxyphenyl)-2-(2,3-dioxo-4-propylpiperazine-1-carboxamido)acetamido)-2-hydroxy-3,4-dihydro-2H-benzo[e][1,2]oxaborinine-8-carboxylic acid] | 10 to 100 µM | > 500 µM |  | 
8 | CCN1CCN(C(=O)NC(C(=O)N[C@H]2Cc3ccc(F)c(C(=O)O)c3OB2O)c2cc(O)c(O)cc2F)C(=O)C1=O (stereo partly drawn) [Example 136, (3R)-3-(2-(4-ethyl-2,3-dioxopiperazine-1-carboxamido)-2-(2-fluoro-4,5-dihydroxyphenyl)acetamido)-7-fluoro-2-hydroxy-3,4-dihydro-2H-benzo[e][1,2]oxaborinine-8-carboxylic acid] | 10 to 100 µM | > 500 µM |  | 
9 | CCN1CCN(C(=O)NC(C(=O)N[C@H]2Cc3cc(F)cc(C(=O)O)c3OB2O)c2csc(N)n2)C(=O)C1=O (stereo partly drawn) [Example 16, (3R)-3-(2-(2-aminothiazol-4-yl)-2-(4-ethyl-2,3-dioxopiperazine-1-carboxamido)acetamido)-6-fluoro-2-hydroxy-3,4-dihydro-2H-benzo[e][1,2]oxaborinine-8-carboxylic acid] |  | > 500 µM | > 500 µM | 
10 | CCN1CCN(C(=O)NC(C(=O)N[C@H]2Cc3cccc(C(=O)O)c3OB2O)c2ccc(O)cc2F)C(=O)C1=O (stereo partly drawn) [Example 87, (3R)-3-(2-(4-ethyl-2,3-dioxopiperazine-1-carboxamido)-2-(2-fluoro-4-hydroxyphenyl)acetamido)-2-hydroxy-3,4-dihydro-2H-benzo[e][1,2]oxaborinine-8-carboxylic acid] |  | > 500 µM | > 500 µM | 
11 | CCN1CCN(C(=O)NC(C(=O)N[C@H]2Cc3cccc(C(=O)O)c3OB2O)c2cccs2)C(=O)C1=O (stereo partly drawn) [Example 115, (3R)-3-(2-(4-ethyl-2,3-dioxopiperazine-1-carboxamido)-2-(thiophen-2-yl)acetamido)-2-hydroxy-3,4-dihydro-2H-benzo[e][1,2]oxaborinine-8-carboxylic acid] | > 100 µM |  |  | 
12 | CCN1CCN(C(=O)NC(C(=O)N[C@H]2Cc3cccc(C(=O)O)c3OB2O)c2ncc(O)cc2F)C(=O)C1=O (stereo partly drawn) [Example 135, (3R)-3-(2-(4-ethyl-2,3-dioxopiperazine-1-carboxamido)-2-(3-fluoro-5-hydroxypyridin-2-yl)acetamido)-2-hydroxy-3,4-dihydro-2H-benzo[e][1,2]oxaborinine-8-carboxylic acid] |  |  | 30 to 500 µM | 
13 | O=C(O)c1cccc2c1OB(O)[C@@H](NC(=O)C(NC(=O)N1CCN(CCF)C(=O)C1=O)c1ccc(O)c(O)c1Cl)C2 (stereo partly drawn) [Example 71, (3R)-3-(2-(2-chloro-3,4-dihydroxyphenyl)-2-(4-(2-fluoroethyl)-2,3-dioxopiperazine-1-carboxamido)acetamido)-2-hydroxy-3,4-dihydro-2H-benzo[e][1,2]oxaborinine-8-carboxylic acid] | < 10 µM |  |  | 
14 | NS(=O)(=O)c1ccc(C(NC(=O)N2CCN(CCF)C(=O)C2=O)C(=O)N[C@H]2Cc3cccc(C(=O)O)c3OB2O)cc1 (stereo partly drawn) [Example 103, (3R)-3-(2-(4-(2-fluoroethyl)-2,3-dioxopiperazine-1-carboxamido)-2-(4-sulfamoylphenyl)acetamido)-2-hydroxy-3,4-dihydro-2H-benzo[e][1,2]oxaborinine-8-carboxylic acid] |  |  | > 500 µM | 
15 | CCCN1CCN(C(=O)NC(C(=O)N[C@H]2Cc3ccc(F)c(C(=O)O)c3OB2O)c2ccc(O)c(O)c2Cl)C(=O)C1=O (some centres unmarked) [Example 125] | < 10 µM |  |  | 
16 | CCN1CCN(C(=O)NC(C(=O)N[C@H]2Cc3ccc(F)c(C(=O)O)c3OB2O)c2ncc(O)cc2Cl)C(=O)C1=O (stereo partly drawn) [Example 151, (3R)-3-(2-(3-chloro-5-hydroxypyridin-2-yl)-2-(4-ethyl-2,3-dioxopiperazine-1-carboxamido)acetamido)-7-fluoro-2-hydroxy-3,4-dihydro-2H-benzo[e][1,2]oxaborinine-8-carboxylic acid] |  |  | > 500 µM | 
17 | CCN1CCN(C(=O)NC(C(=O)N[C@H]2Cc3cccc(C(=O)O)c3OB2O)c2ccc(B(O)O)cc2)C(=O)C1=O (some centres unmarked) [Example 112] | > 100 µM |  |  | 
18 | CCN1CCN(C(=O)NC(C(=O)N[C@H]2Cc3ccc(F)c(C(=O)O)c3OB2O)c2csc(N)n2)C(=O)C1=O (stereo partly drawn) [Example 109, (3R)-3-(2-(2-aminothiazol-4-yl)-2-(4-ethyl-2,3-dioxopiperazine-1-carboxamido)acetamido)-7-fluoro-2-hydroxy-3,4-dihydro-2H-benzo[e][1,2]oxaborinine-8-carboxylic acid] | > 100 µM |  | > 500 µM | 
19 | CCN1CCN(C(=O)NC(C(=O)N[C@H]2Cc3cccc(C(=O)O)c3OB2O)c2ncc(O)cc2Cl)C(=O)C1=O (stereo partly drawn) [Example 150, (3R)-3-(2-(4-ethyl-2,3-dioxopiperazine-1-carboxamido)-2-(3-chloro-5-hydroxypyridin-2-yl)acetamido)-2-hydroxy-3,4-dihydro-2H-benzo[e][1,2]oxaborinine-8-carboxylic acid] |  |  | > 500 µM | 
20 | CCN1CCN(C(=O)NC(C(=O)N[C@H]2Cc3ccc(F)c(C(=O)O)c3OB2O)c2ncc(O)cc2F)C(=O)C1=O (stereo partly drawn) [Example 145, (3R)-3-(2-(4-ethyl-2,3-dioxopiperazine-1-carboxamido)-2-(3-fluoro-5-hydroxypyridin-2-yl)acetamido)-7-fluoro-2-hydroxy-3,4-dihydro-2H-benzo[e][1,2]oxaborinine-8-carboxylic acid] | > 100 µM | > 500 µM |  | 
21 | CCN1CCN(C(=O)NC(C(=O)N[C@H]2Cc3cccc(C(=O)O)c3OB2O)c2ccc(O)c(O)c2Cl)C(=O)C1=O (stereo partly drawn) [Example 37, (3R)-3-(2-(2-chloro-3,4-dihydroxyphenyl)-2-(4-ethyl-2,3-dioxopiperazine-1-carboxamido)acetamido)-2-hydroxy-3,4-dihydro-2H-benzo[e][1,2]oxaborinine-8-carboxylic acid] |  | > 500 µM |  | 
